One experiment has as its system GABARAP. The following applies: full-length HsEPG5; cited from earlier work.
Another experiment deals with HeLa cells. The following applies: Rab7 colocalization; cited from earlier work.
For experiment [1], the system named is STX17-SNAP29-VAMP8 complex. The following applies: in vitro fusion assay; cited from earlier work.
In another experiment the test system is LC3/GABARAP proteins. The settings on record: cited from earlier work.
The next experiment has as its target LGG-1 (Caenorhabditis elegans, UniProt Q09490). The settings on record: cited from earlier work.
For another experiment, the target named is His-LGG-1 (C. elegans, UniProt Q09490 1-116). The experiment is described as follows: ITC. In general terms: ITC needs no label: the signal is the heat of the interaction.

In general, Kd refers to the equilibrium constant for the complex coming apart. Read a low Kd as tighter binding.

Chain of His-LGG-1 (Q09490 1-116): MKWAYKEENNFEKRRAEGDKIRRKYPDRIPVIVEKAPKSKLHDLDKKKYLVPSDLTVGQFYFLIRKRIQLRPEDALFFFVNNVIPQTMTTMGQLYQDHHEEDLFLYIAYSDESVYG
Chain of LGG-1 (Q09490 whole entry): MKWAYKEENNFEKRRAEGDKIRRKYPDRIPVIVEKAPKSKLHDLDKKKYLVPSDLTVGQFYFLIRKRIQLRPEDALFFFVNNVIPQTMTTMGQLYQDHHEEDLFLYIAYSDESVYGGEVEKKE

Regarding “HsEPG5: human EPG5 (ectopic P-granules 5 autophagy tethering factor; ~290 kDa)”, the “Atg8 subfamily preference of HsEPG5” value with GABARAP is given as “preferentially binds members of the GABARAP subfamily”. For the same molecule, the “formation of puncta / localization in cells” value in the experiment on HeLa cells is given as “could form small puncta that colocalize with lysosomal surface-residing Rab7 in HeLa cells”. Besides, the “effect on STX17-SNAP29-VAMP8 complex formation” value in experiment [1] is listed as “modestly enhances the formation of the STX17-SNAP29-VAMP8 complex”. Moreover, the “dependence of peri-nuclear localization on LC3/GABARAP proteins” value with LC3/GABARAP proteins is “HsEPG5 localization to the peri-nuclear region is independent of LC3/GABARAP proteins”. For the molecule CeEPG5: C. elegans EPG-5, recombinant, the “binding to LGG-1” value with LGG-1 is recorded as “binds the C. elegans Atg8 protein LGG-1 via its tandem LIR”.

B1: CeEPG5 LIR2 peptide (516GEANEFSFVTINE528) (peptide)
peptide: GEANEFSFVTINE
As for B1, in the experiment with His-LGG-1, the dissociation constant Kd was 10.4 µM.

B2: CeEPG5 LIR1 peptide (505STWEILADDDD515) (peptide)
peptide: STWEILADDDD
Turning to B2, binding with His-LGG-1 was characterised by a dissociation constant (Kd) of 1.46 µM.

(Values after PMC12087653 (Autophagy, 2025).)
